Molecular target: T1, delF508-CFTR-HRP (Homo sapiens, UniProt P13569, DEL508-508)
T1 construct: expressed in transfected cells
Assay: Measurement of delF508-CFTR-HRP surface expression in CFBE41o- cells (HRP luminescence);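 on DelF508-CFTR-HRP Amax %: percent efficacy relative to a reference CFTR corrector compound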
Type: cell-based
Conditions: for Emax: CFBE41o-, read-out: DelF508-CFTR-HRP Amax %; for EC50: mean of at least two replicates
Summary of the method: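 Stably transfected CFBE41o- cells carrying HRP in the fourth extracellular loop of delF508-CFTR, induced with 500 ng/mL doxycycline for 48 h, then compound-treated 24 h at 37° C (10-point, 3-fold, top 10 μM). Surface HRP detected by luminescent substrate; EC50 from logistic fit, triplicates, normalized to lowest-concentration median.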

T1 sequence (P13569 with tags, fused parts or gaps DEL508-508): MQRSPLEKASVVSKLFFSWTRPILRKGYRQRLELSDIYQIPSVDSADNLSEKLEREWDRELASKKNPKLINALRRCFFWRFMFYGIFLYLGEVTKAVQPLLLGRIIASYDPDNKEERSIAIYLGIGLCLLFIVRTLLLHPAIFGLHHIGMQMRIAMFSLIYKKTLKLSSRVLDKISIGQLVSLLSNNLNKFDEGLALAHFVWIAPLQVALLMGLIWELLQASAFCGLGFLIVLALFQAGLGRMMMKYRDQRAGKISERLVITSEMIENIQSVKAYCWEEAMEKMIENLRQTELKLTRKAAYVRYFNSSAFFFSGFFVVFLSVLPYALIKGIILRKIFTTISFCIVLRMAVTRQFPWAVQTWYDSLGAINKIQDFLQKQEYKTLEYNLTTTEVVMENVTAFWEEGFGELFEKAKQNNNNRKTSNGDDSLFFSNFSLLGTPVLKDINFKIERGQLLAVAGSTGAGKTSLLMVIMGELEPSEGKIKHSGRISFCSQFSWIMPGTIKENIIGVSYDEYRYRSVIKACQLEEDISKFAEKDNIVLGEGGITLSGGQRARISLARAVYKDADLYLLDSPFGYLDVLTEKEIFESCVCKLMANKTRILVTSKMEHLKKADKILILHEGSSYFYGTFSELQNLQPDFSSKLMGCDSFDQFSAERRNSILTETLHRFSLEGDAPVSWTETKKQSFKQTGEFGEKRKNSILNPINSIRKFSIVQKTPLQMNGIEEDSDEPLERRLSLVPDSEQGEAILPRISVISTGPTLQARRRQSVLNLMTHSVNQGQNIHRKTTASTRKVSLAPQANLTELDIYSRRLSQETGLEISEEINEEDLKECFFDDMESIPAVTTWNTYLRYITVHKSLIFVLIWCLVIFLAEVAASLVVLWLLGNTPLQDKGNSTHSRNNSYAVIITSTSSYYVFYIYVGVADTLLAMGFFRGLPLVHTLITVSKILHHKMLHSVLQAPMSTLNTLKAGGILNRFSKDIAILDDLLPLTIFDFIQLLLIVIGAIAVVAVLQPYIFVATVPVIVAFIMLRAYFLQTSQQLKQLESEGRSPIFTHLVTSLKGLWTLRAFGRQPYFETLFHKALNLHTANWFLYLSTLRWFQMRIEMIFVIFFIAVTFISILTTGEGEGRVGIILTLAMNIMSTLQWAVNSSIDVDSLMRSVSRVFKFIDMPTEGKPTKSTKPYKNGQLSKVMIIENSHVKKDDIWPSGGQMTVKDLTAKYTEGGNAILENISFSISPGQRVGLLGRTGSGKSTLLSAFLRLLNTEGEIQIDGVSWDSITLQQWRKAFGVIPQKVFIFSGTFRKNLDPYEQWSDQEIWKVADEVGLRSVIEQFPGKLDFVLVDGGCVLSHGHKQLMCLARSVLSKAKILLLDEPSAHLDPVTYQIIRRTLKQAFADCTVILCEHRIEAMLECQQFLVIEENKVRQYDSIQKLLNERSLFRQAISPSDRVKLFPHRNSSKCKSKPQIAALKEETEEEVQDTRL

Compound	Emax [%]	EC50 [nM]	DelF508-CFTR-HRP Amax % [%]
COCCN(C)c1cccc(S(=O)(=O)NC(=O)C2(Oc3cc(Cl)ccc3N3CCC(C)(C)CC3)CC2)n1 [Example 10-5, 1-(5-chloro-2-(4,4-dimethylpiperidin-1-yl)phenoxy)-N-((6-((2-methoxyethyl)(methyl)amino)pyridin-2-yl)sulfonyl)cyclopropanecarboxamide]	475	1020	–
O=C(NS(=O)(=O)c1cccc(N2CCC(O)(C(F)(F)F)CC2)n1)C1(Oc2cc(Cl)ccc2N2CCC3(CC2)CC3)CC1 [Example 9-31, 1-(5-Chloro-2-(6-azaspiro[2.5]octan-6-yl)phenoxy)-N-((6-(4-hydroxy-4-(trifluoromethyl)piperidin-1-yl)pyridin-2-yl)sulfonyl)cyclopropanecarboxamide]	553	410	–
O=C(NS(=O)(=O)c1cccc(N2CC[C@H](O)C2)n1)C1(Oc2cc(Cl)ccc2OC2CCCC2)CC1 [Example 6-14, (S)-1-(5-chloro-2-(cyclopentyloxy)phenoxy)-N-((6-(3-hydroxypyrrolidin-1-yl)pyridin-2-yl)sulfonyl)cyclopropanecarboxamide]	276	3240	–
CC1(C)CCN(c2ccc(Cl)cc2OC2(C(=O)NS(=O)(=O)c3cccc(N4CCCC(C)(O)C4)n3)CC2)CC1 (single isomer, unassigned) [Example 9-43-1, 1-(5-Chloro-2-(4,4-dimethylpiperidin-1-yl)phenoxy)-N-((6-(3-hydroxy-3-methylpiperidin-1-yl)pyridin-2-yl)sulfonyl)cyclopropane-1-carboxamide]	–	1170	545.9
Cc1ccc(C2CCC(C)(C)OC2)c(OC2(C(=O)NS(=O)(=O)c3cccc(N4CC[C@H](O)C4)n3)CC2)c1 (single isomer, unassigned) [Example 4-24-1]	–	3620	295
CC(C)COc1cccc(-c2ccc(Cl)cc2OC2(C(=O)NS(=O)(=O)c3cccc(N4CCC(C)(C#N)CC4)n3)CC2)c1 [Example 5-3, 1-((4-Chloro-3′-isobutoxy-[1,1′-biphenyl]-2-yl)oxy)-N-((6-(4-cyano-4-methylpiperidin-1-yl)pyridin-2-yl)sulfonyl)cyclopropane-1-carboxamide]	286	750	–
O=C(NS(=O)(=O)c1cccc(N2CC[C@H](O)C2)n1)C1(Oc2cc(Cl)ccc2-c2cccc(OC(F)(F)F)c2)CC1 [Example 5-6, (S)-1-((4-Chloro-3′-(trifluoromethoxy)-[1,1′-biphenyl]-2-yl)oxy)-N-((6-(3-hydroxypyrrolidin-1-yl)pyridin-2-yl)sulfonyl)cyclopropane-1-carboxamide]	280	1770	–
Cc1ccc(C2CCCCC2)c(OC2(C(=O)NS(=O)(=O)c3cccc(N4CCC(NC(=O)OC(C)(C)C)CC4)n3)CC2)c1 [Example 2-43, Tert-butyl (1-(6-(N-(1-(2-cyclohexyl-5-methylphenoxy)cyclopropanecarbonyl)sulfamoyl)pyridin-2-yl)piperidin-4-yl)carbamate]	556	1120	–
CC1(O)CCN(c2cccc(S(=O)(=O)NC(=O)C3(Oc4cc(Cl)ccc4N4CCC(C(C)(C)C)CC4)CC3)n2)CC1 [Example 9-35, 1-(2-(4-(Tert-butyl)piperidin-1-yl)-5-chlorophenoxy)-N-((6-(4-hydroxy-4-methylpiperidin-1-yl)pyridin-2-yl)sulfonyl)cyclopropanecarboxamide]	140	340	–
CC1(C)CCN(c2ccc(Cl)cc2OC2(C(=O)NS(=O)(=O)c3cccc(N4CCCC(C)(O)C4)n3)CC2)CC1 (single isomer, unassigned) [Example 9-43-2, 1-(5-Chloro-2-(4,4-dimethylpiperidin-1-yl)phenoxy)-N-((6-(3-hydroxy-3-methylpiperidin-1-yl)pyridin-2-yl)sulfonyl)cyclopropane-1-carboxamide]	–	1920	367.4
CC1(C)CCCN(c2ccc(Cl)cc2OC2(C(=O)NS(=O)(=O)c3cccc(N4CCC(O)(C(F)(F)F)CC4)n3)CC2)C1 [Example 10-7, 1-(5-chloro-2-(3,3-dimethylpiperidin-1-yl)phenoxy)-N-((6-(4-hydroxy-4-(trifluoromethyl)piperidin-1-yl)pyridin-2-yl)sulfonyl)cyclopropanecarboxamide]	604	160	–
CC1(C)CCN(c2ccc(Cl)cc2OC2(C(=O)NS(=O)(=O)c3cccc(N4CCN5C(=O)CCC5C4)n3)CC2)CC1 (centres unmarked) [Example 10-10, 1-(8-chloro-2-(4,4-dimethylpiperidin-1-yl)phenoxy)-N-((6-(6-oxohexahydropyrrolo[1,2-a]pyrazin-2(1H)-yl)pyridin-2-yl)sulfonyl)cyclopropanecarboxamide]	210	2620	–

The remaining compounds from weak to strong by EC50, led by results:

Emax [%]	EC50 [nM]	DelF508-CFTR-HRP Amax % [%]	Compound
–	4180	65	Cc1ccc(C2CC2C(F)(F)F)c(OC2(C(=O)NS(=O)(=O)c3cccc(N)n3)CC2)c1 (single isomer, unassigned) [Example 1-3-1, N-((6-aminopyridin-2-yl)sulfonyl)-1-(5-methyl-2-(2-(trifluoromethyl)cyclopropyl)phenoxy)cyclopropane-1-carboxamide]
507	2780	–	Cc1ccc(OC2CCCCC2)c(OC2(C(=O)NS(=O)(=O)c3cccc(N4CC[C@H](O)C4)n3)CC2)c1 [Example 6-3, (S)-1-(2-(Cyclohexyloxy)-5-methylphenoxy)-N-((6-(3-hydroxypyrrolidin-1-yl)pyridin-2-yl)sulfonyl)cyclopropane-1-carboxamide]
285	2550	–	Cc1ccc(OC2CCCC2)c(OC2(C(=O)NS(=O)(=O)c3cccc(N4CC[C@H](O)C4)n3)CC2)c1 [Example 6-13, (S)-1-(2-(cyclopentyloxy)-5-methylphenoxy)-N-((6-(3-hydroxypyrrolidin-1-yl)pyridin-2-yl)sulfonyl)cyclopropanecarboxamide]
382	880	–	C[C@@]1(O)CCN(c2cccc(S(=O)(=O)NC(=O)C3(Oc4cc(Cl)ccc4C4CC5(CCC5)C4)CC3)n2)C1 (single isomer, unassigned) [Example 7-2-2]
493	600	–	CC1(C)CCN(c2ccc(Cl)cc2OC2(C(=O)NS(=O)(=O)c3cccc(N4CCC(c5ccccn5)CC4)n3)CC2)CC1 [Example 10-3, 1-(5-chloro-2-(4,4-dimethylpiperidin-1-yl)phenoxy)-N-((6-(4-(pyridin-2-yl)piperidin-1-yl)pyridin-2-yl)sulfonyl)cyclopropanecarboxamide]
293	360	–	COC(=O)C(C)(C)CN1CCN(c2cccc(S(=O)(=O)NC(=O)C3(Oc4cc(C)ccc4C4CCCCC4)CC3)n2)CC1 [Example 2-38, Methyl 3-(4-(6-(N-(1-(2-cyclohexyl-5-methylphenoxy)cyclopropanecarbonyl)sulfamoyl)pyridin-2-yl)piperazin-1-yl)-2,2-dimethylpropanoate]
526	330	–	Cc1ccc(OC2CCC(C(C)(C)C)CC2)c(OC2(C(=O)NS(=O)(=O)c3cccc(N4CC[C@H](O)C4)n3)CC2)c1 (stereo partly drawn) [Example 6-4, (S)-1-(2-((4-(tert-butyl)cyclohexyl)oxy)-5-methylphenoxy)-N-((6-(3-hydroxypyrrolidin-1-yl)pyridin-2-yl)sulfonyl)cyclopropanecarboxamide]
